Test results reported in ChEMBL document CHEMBL2073969, “Increased renal expression of bilirubin glucuronide transporters in a rat model of obstructive jaundice” (Am J Physiol Gastrointest Liver Physiol, 2002).

Target: ATP-binding cassette sub-family C member 2 (Homo sapiens, UniProt Q92887)
Assay: TP_TRANSPORTER: RT-PCR in renal proximal tubular epithelial cells
Format: functional, tissue-based, Kidney
Details: epithelial cell

ATP-binding cassette sub-family C member 2, sequence (Q92887 whole entry): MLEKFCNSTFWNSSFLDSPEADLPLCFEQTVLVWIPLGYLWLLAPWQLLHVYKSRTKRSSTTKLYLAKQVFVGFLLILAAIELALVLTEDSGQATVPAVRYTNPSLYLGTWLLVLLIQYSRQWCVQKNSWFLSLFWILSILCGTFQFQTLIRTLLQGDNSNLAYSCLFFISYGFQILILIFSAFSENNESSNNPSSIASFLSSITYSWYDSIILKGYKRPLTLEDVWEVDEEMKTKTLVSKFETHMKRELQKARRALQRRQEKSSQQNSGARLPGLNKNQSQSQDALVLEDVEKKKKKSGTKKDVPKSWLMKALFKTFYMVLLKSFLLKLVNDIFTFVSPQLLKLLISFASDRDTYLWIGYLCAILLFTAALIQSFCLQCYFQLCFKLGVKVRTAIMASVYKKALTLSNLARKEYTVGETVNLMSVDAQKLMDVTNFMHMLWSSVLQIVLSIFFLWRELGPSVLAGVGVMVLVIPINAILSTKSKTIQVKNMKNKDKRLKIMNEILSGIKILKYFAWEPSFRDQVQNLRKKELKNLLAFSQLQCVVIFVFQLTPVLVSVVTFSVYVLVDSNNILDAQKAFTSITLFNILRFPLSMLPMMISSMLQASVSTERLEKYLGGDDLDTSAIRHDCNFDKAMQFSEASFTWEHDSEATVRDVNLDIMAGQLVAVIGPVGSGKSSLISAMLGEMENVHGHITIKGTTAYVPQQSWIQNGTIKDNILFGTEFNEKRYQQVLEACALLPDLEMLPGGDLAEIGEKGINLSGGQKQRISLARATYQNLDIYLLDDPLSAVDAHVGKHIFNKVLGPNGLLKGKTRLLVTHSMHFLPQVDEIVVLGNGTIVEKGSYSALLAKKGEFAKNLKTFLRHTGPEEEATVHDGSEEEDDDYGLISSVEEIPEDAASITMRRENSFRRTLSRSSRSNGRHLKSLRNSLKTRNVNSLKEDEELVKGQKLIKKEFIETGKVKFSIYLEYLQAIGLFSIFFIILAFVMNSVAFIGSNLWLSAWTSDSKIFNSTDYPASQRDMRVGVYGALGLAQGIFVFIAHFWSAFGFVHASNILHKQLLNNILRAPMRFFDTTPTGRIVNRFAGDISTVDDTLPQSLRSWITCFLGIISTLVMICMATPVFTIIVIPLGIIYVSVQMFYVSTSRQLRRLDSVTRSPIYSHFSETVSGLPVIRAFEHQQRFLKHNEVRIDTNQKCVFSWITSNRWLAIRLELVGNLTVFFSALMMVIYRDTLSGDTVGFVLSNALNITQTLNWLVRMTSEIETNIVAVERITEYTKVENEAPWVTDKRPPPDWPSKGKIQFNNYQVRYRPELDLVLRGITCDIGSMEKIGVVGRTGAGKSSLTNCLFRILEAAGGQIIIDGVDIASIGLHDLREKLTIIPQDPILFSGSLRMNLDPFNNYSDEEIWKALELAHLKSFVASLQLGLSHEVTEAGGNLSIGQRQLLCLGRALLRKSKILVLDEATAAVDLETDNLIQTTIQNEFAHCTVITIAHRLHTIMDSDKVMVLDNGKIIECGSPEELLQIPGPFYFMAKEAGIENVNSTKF

Row | Activity | SMILES
1 | inducer [+] | C=CC1=C(C)/C(=C/c2[nH]c(Cc3[nH]c(/C=C4\NC(=O)C(C)=C4C=C)c(C)c3CCC(=O)NCCS(=O)(=O)O)c(CCC(=O)NCCS(=O)(=O)O)c2C)NC1=O [BILIRUBIN DITAURATE]
2 | inducer [+] | C[C@H](CCC(=O)NCCS(=O)(=O)O)[C@H]1CC[C@H]2[C@@H]3CC[C@@H]4C[C@H](O)CC[C@]4(C)[C@H]3CC[C@]12C [TAUROLITHOCHOLIC ACID]
